{
  "source": "patent US10640527B2",
  "about": "“Mesitylene-cored amphiphiles and uses thereof” (Industry-University Cooperation Foundation Hanyang …, priority 2016, dated 2020)",
  "key": {"[1]": {"assay": "Hydrodynamic radius / size distribution of micelles by dynamic light scattering (DLS)", "assay_type": "physicochemical", "settings": "1.0 wt % amphiphile", "protocol": "A method of measuring a radius of the micelle is not particularly limited, and those methods widely known in the related field may be used, for example, a dynamic light scattering (DLS) experiment may be used for measurement.\n(§1) Specifically, a CMC was measured by a fluorophorescent encapsulation method using diphenylhexatriene (DPH) and an Rh of a micelle formed by each formulation (1.0 wt %) was measured using a dynamic light scattering (DLS) experiment."}, "[2]": {"target": "T1, melibiose permease (MelBSt) (Salmonella typhimurium, UniProt P30878)", "T1 construct": "made in house; host or cells: DW2 cells (ΔmelB and ΔlacZY), Salmonella typhimurium DW2", "T1 sequence (P30878 whole entry)": "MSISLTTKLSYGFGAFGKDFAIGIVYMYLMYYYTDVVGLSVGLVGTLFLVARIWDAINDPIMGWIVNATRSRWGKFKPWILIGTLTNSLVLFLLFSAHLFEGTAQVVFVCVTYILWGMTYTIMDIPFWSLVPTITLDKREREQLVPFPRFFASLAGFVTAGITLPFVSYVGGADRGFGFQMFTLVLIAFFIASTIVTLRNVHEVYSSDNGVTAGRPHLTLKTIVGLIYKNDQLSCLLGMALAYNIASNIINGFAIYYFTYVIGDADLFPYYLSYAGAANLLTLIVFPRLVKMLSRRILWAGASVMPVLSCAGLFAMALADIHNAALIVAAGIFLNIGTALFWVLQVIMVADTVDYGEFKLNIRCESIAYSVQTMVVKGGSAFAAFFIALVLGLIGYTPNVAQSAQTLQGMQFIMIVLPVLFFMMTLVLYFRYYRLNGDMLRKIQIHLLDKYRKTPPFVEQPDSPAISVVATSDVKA", "assay": "MelBSt extraction from membranes and thermal stability, SDS-PAGE and Western blotting", "assay_type": "biochemical", "settings": "1.5 wt %, 90 minutes", "protocol": "An experiment for measuring the structural stability of Salmonella typhimurium melibiose permease (MelBSt) according to MGAs in an aqueous solution was performed. After MelBSt proteins were extracted from a membrane using MGAs or DDM, the amount and structure of extracted proteins were analyzed by SDS-PAGE and western blotting. The concentration of used amphiphiles was 1.5 wt %, and proteins were extracted at four different temperatures of 0, 45, 55 and 65° C. to evaluate both the protein extraction efficiency and stabilizing ability of a compound. A membrane sample which had not been treated with MGAs or DDM was used as a control group.\nSpecifically, MelBSt stability solubilized in DDM or MGAs was evaluated according to a method described in 2010 in a research article (P. S. Chae et al., Nat. Methods 2010, 7, 1003-1008.) by the inventors of the present invention. Proteins (MelBSt) were produced using plasmid pK95ΔAHB/WT MelBSt/CH10 encoding the wild-type MelB with a 6-His tag at the C-terminus and Salmonella typhimurium DW2 cells (ΔmelB and ΔlacZY). Cell growth and membrane preparation was performed according to a method described in a research article (Nat. Commun. 2014, 5, 3009) by A. S. Ethayathulla, et al. A protein assay was carried out using a Micro BCA kit (Thermo Scientific, Rockford, Ill.). In order to measure protein solubilization, a membrane sample (final protein concentration was 10 mg/mL) containing MelBSt was incubated with a solubilization buffer (20 mM sodium phosphate, pH 7.5, 200 mM NaCl, 10% glycerol and 20 mM melibiose) and 1.5% (w/v) DDM or MGA (MGA-C10, MGA-C11, MGA-C12, MGA-C13, MGA-C14 or MGA-C15) at four different temperatures of 0, 45, 55 and 65° C. for 90 minutes. After ultracentrifugation at 355,590 g in a Beckman Optima™ MAX Ultracentrifuge using a TLA-100 rotor for 45 min at 4° C., 20 μg of a protein was separated by SDS-16% PAGE and immunoblotted with a Penta-His-HRP antibody (Qiagen, Germantown, Md.). MelBSt was measured by an ImageQuant LAS 4000 Biomolecular Imager (GE Healthcare Life Sciences) using a SuperSignal West Pico chemiluminescent substrate."}, "[3]": {"test_system": "leucine transporter (LeuT)", "assay": "LeuT long-term stability, [3H]-Leu binding by scintillation proximity assay (SPA)", "assay_type": "biochemical, Aquifex aeolicus", "settings": "after 12 days of incubation at room temperature", "protocol": "An experiment for measuring the structural stability of LeuT proteins according to MGAs (MGA-C11, MGA-C12, MGA-C13, MGA-C14 and MGA-C15) was performed. Each amphiphile was used at a concentration of (a) CMC+0.04 wt % or (b) CMC+0.2 wt %, a ligand-binding activity of LeuT was measured by scintillation proximity assay (SPA) using [^3H]-Leucine. The measurement was performed at regular intervals at room temperature during 12 days of incubation.\nSpecifically, a thermophilic bacteria Aquifex aeolicus-derived wild type LeuT was purified using a previously described method (Nature, G. Deckert et al., 1998, 392, 353-358). To sum up, the LeuT was expressed in E. coli C41 (DE3) cultured in a lysogeny broth medium supplemented with 0.1 mg/ml ampicillin. Expression of proteins was induced by adding isopropyl β-D-thiogalactopyranoside to a final concentration of 0.1 mM.\nA cell membrane was separated from a crushed cell (Constant Systems Homogenizers, Kennesaw, Ga.), and solubilized in 1% (w/v) n-dodecyl-β-D-maltopyranoside (DDM; Affymetrix, Santa Clara, Calif.). After solubilization, LeuT was fixed in a Ni^2+-NTA resin (Life Technologies, Denmark), and eluted in 20 mM Tris-HCl (pH 7.5), 199 mM KCl, 1 mM NaCl, 0.05% (w/v) DDM and 300 mM imidazole. Thereafter, purified LeuT (about 1.5 mg/ml) was diluted tenfold with a buffer supplemented with MGA (MGA-C11, MGA-C12, MGA-C13, MGA-C14 or MGA-C15) or DDM to the final concentration of CMC+0.04% (w/v) or CMC+0.2% (w/v) while excluding DDM and imidazole from the above-described buffers. Protein samples were stored at room temperature for 12 days, and protein activity was determined by measuring [^3H]-Leu binding by SPA at a specified time. SPA was carried out using 450 mM NaCl and buffers containing each MGA, and a SPA reaction was performed in the presence of 20 nM [^3H]-Leu and 1.25 mg/ml copper chelate (His-Tag) YSi beads (Perkin Elmer, Denmark). [^3H]-Leu binding was measured using a MicroBeta liquid scintillation counter (Perkin Elmer)."}, "[4]": {"assay": "Critical micelle concentration by fluorophore encapsulation using diphenylhexatriene (DPH)", "assay_type": "physicochemical", "settings": "aqueous solution", "protocol": "A method of measuring a CMC is not particularly limited, and those methods widely known in the related field may be used. For example, a CMC may be measured by a fluorophore encapsulation method using diphenylhexatriene (DPH).\nas §1"}, "[5]": {"target": "T2, human β2-adrenergic receptor (β2AR) (Homo sapiens, UniProt P07550)", "T2 sequence (P07550 whole entry)": "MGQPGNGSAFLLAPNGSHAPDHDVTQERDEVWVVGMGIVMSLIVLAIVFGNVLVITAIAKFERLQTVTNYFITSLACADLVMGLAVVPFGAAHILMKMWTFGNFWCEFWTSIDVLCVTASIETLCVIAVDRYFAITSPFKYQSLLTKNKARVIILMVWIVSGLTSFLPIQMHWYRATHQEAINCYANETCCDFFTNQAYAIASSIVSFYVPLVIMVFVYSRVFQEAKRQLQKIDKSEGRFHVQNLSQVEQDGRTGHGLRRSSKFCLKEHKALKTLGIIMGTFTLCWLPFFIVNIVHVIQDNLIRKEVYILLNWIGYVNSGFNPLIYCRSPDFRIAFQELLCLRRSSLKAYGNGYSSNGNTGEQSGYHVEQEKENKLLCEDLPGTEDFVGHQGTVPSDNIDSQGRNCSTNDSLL", "assay": "Size exclusion chromatography (SEC) of β2AR solubilized in amphiphile", "settings": "amphiphile-free running buffer", "protocol": "A size exclusion chromatography (SEC) experiment was conducted to determine the β2AR crystallization effect and β2AR stability preservation effect by MGA-C13 or DDM.\nSpecifically, β2AR purified by 0.1% DDM was mixed with a DDM or MGA-C13 buffer (20 mM HEPES pH 7.5, 100 mM NaCl, 0.2% of each amphiphile) and incubated for 30 minutes. The sample was applied to a Superdex-200 10/300 GL column (GE Healthcare Life Sciences) at a rate of 0.5 ml/min, fluorescence was recorded at 345 nm, and an […] wavelength was 295 nm. A running buffer contained 20 mM HEPES (pH 7.5) and 100 mM NaCl, and contained each amphiphile (DDM or MGA-C13) or not."}, "[6]": {"target": "T2, human β2-adrenergic receptor (β2AR)", "assay": "β2AR stability, [3H]-dihydroalprenolol radioligand binding", "assay_type": "biochemical", "settings": "after three days of incubation at room temperature, CMC+0.2 wt %", "protocol": "The activity of a receptor (β2AR) purified by DDM or MGAs (MGA-C12, MGA-C13 and MGA-C14) was measured by binding of [^3H]-dihydroalprenolol ([^3H]-DHA).\nSpecifically, the following method was used in a radioligand binding experiment. β2AR was purified by 0.1% DDM. The DDM-purified β2AR was diluted with a buffer solution containing each amphiphile (DDM or an MGA) such that the final concentration of the amphiphile was CMC+0.2 wt %. β2AR dissolved in each amphiphile was stored at room temperature for three days, and incubated at room temperature for 30 minutes using 10 nM-radioactive [^3H]-dihydroalprenolol (DHA) to measure ligand binding thereof at regular intervals. The mixture was loaded into a G-50 column, and passing liquid was collected using a binding buffer (20 mM HEPES pH 7.5, 100 mM NaCl supplemented with 0.5 mg/ml BSA) and 15 ml of a scintillation fluid was added thereto. Receptor-coupled [^3H]-DHA was measured by a scintillation counter (Beckman). Non-specific binding of [^3H]-DHA was measured by adding 1 μM of alprenolol (Sigma) in the same reaction. Binding of [^3H]-DHA was measured by column graphs."}},
  "note": "“And” between values parts separate entries of the source, which are not always exact repeats. Identical values can stand only once.",
  "data": [
    {"compound": "CCCCCCCCCCCCO[C@@H]1O[C@H](CO)[C@@H](O[C@H]2O[C@H](CO)[C@@H](O)[C@H](O)[C@H]2O)[C@H](O)[C@H]1O", "note": "[DDM, n-dodecyl-β-D-maltopyranoside, reference compound]", "values": [
      {"measurement": "Rh (nm), hydrodynamic radius of micelle", "setting": "[1]", "result": "3.4 nm and 3.4 ± 0.02 nm"},
      {"measurement": "MelBSt protein extraction efficiency", "setting": "[2]; 0° C. and 45° C.", "result": "high protein extraction efficiency"},
      {"measurement": "MelBSt protein extracted", "setting": "[2]; 55° C. or more", "result": "almost no protein was observed"},
      {"measurement": "LeuT ligand-binding activity retained, % of initial activity", "setting": "[3]", "result": "~40", "unit": "%"},
      {"measurement": "CMC", "setting": "[4]", "result": "~170", "unit": "µM"},
      {"measurement": "CMC (wt %)", "setting": "[4]", "result": "~0.0087", "unit": "wt %"},
      {"measurement": "SEC profile of solubilized β2AR", "setting": "[5]", "result": "largely decreased monodispersed peak intensity (˜13 mL) and a new broad aggregate peak (˜10 mL)"},
      {"measurement": "β2AR receptor (ligand binding) activity retained", "setting": "[6]", "result": "~15", "unit": "%"}
    ]}
  ]
}
